± gives the expanded uncertainty stated by the source.
Test: xn = mol fraction of the nth substance listed
Details: 101 kPa, Liquid, Vibrating tube method

CCCCO [butan-1-ol] + CCCCCCC
mass density [kg/m3]
Details | 288.15 K | 293.15 K | 298.15 K | 303.15 K | 308.15 K | 313.15 K | 318.15 K | 323.15 K
x1 = 0.0691 | 692.997 ± 0.23 | 688.732 ± 0.23 | 684.439 ± 0.23 | 680.112 ± 0.23 | 675.754 ± 0.24 | 671.356 ± 0.24 | 666.921 ± 0.24 | 662.457 ± 0.24
x1 = 0.0999 | 695.43 ± 0.23 | 691.164 ± 0.23 | 686.867 ± 0.23 | 682.541 ± 0.23 | 678.179 ± 0.24 | 673.778 ± 0.24 | 669.334 ± 0.24 | 664.851 ± 0.24
x1 = 0.1495 | 699.575 ± 0.23 | 695.309 ± 0.23 | 691.013 ± 0.23 | 686.688 ± 0.23 | 682.323 ± 0.23 | 677.919 ± 0.24 | 673.469 ± 0.24 | 668.978 ± 0.24
x1 = 0.1701 | 701.352 ± 0.23 | 697.089 ± 0.23 | 692.795 ± 0.23 | 688.469 ± 0.23 | 684.105 ± 0.23 | 679.699 ± 0.23 | 675.246 ± 0.24 | 670.749 ± 0.24
x1 = 0.2 | 703.971 ± 0.23 | 699.708 ± 0.23 | 695.42 ± 0.23 | 691.091 ± 0.23 | 686.729 ± 0.23 | 682.324 ± 0.23 | 677.872 ± 0.24 | 673.376 ± 0.24
x1 = 0.2497 | 708.55 ± 0.22 | 704.296 ± 0.23 | 700.016 ± 0.23 | 695.692 ± 0.23 | 691.331 ± 0.23 | 686.93 ± 0.23 | 682.482 ± 0.23 | 677.987 ± 0.24
x1 = 0.2507 | 708.652 ± 0.22 | 704.392 ± 0.23 | 700.109 ± 0.23 | 695.793 ± 0.23 | 691.434 ± 0.23 | 687.035 ± 0.23 | 682.589 ± 0.23 | 678.099 ± 0.24
x1 = 0.2999 | 713.405 ± 0.22 | 709.158 ± 0.22 | 704.88 ± 0.23 | 700.571 ± 0.23 | 696.222 ± 0.23 | 691.828 ± 0.23 | 687.391 ± 0.23 | 682.909 ± 0.23
x1 = 0.3501 | 718.522 ± 0.22 | 714.283 ± 0.22 | 710.016 ± 0.22 | 705.715 ± 0.22 | 701.373 ± 0.23 | 696.989 ± 0.23 | 692.557 ± 0.23 | 688.076 ± 0.23
x1 = 0.3998 | 723.818 ± 0.22 | 719.595 ± 0.22 | 715.341 ± 0.22 | 711.055 ± 0.22 | 706.726 ± 0.22 | 702.355 ± 0.23 | 697.935 ± 0.23 | 693.471 ± 0.23
x1 = 0.4497 | 729.369 ± 0.21 | 725.163 ± 0.22 | 720.925 ± 0.22 | 716.653 ± 0.22 | 712.34 ± 0.22 | 707.984 ± 0.22 | 703.577 ± 0.23 | 699.118 ± 0.23
x1 = 0.4999 | 735.288 ± 0.21 | 731.11 ± 0.21 | 726.892 ± 0.22 | 722.64 ± 0.22 | 718.343 ± 0.22 | 714.006 ± 0.22 | 709.618 ± 0.22 | 705.176 ± 0.23
x1 = 0.5516 | 741.637 ± 0.21 | 737.484 ± 0.21 | 733.291 ± 0.21 | 729.062 ± 0.21 | 724.793 ± 0.22 | 720.478 ± 0.22 | 716.114 ± 0.22 | 711.695 ± 0.22
x1 = 0.6497 | 754.667 ± 0.2 | 750.57 ± 0.21 | 746.442 ± 0.21 | 742.276 ± 0.21 | 738.07 ± 0.21 | 733.819 ± 0.21 | 729.516 ± 0.22 | 725.167 ± 0.22
x1 = 0.6999 | 761.833 ± 0.2 | 757.773 ± 0.2 | 753.681 ± 0.21 | 749.559 ± 0.21 | 745.39 ± 0.21 | 741.178 ± 0.21 | 736.918 ± 0.21 | 732.609 ± 0.21
x1 = 0.7502 | 769.372 ± 0.2 | 765.348 ± 0.2 | 761.298 ± 0.2 | 757.214 ± 0.2 | 753.09 ± 0.21 | 748.919 ± 0.21 | 744.697 ± 0.21 | 740.419 ± 0.21
x1 = 0.7999 | 777.249 ± 0.2 | 773.267 ± 0.2 | 769.263 ± 0.2 | 765.22 ± 0.2 | 761.14 ± 0.2 | 757.016 ± 0.2 | 752.839 ± 0.21 | 748.617 ± 0.21
x1 = 0.8498 | 785.51 ± 0.19 | 781.573 ± 0.2 | 777.613 ± 0.2 | 773.62 ± 0.2 | 769.591 ± 0.2 | 765.519 ± 0.2 | 761.397 ± 0.2 | 757.222 ± 0.21
x1 = 0.9006 | 794.437 ± 0.19 | 790.548 ± 0.19 | 786.635 ± 0.19 | 782.692 ± 0.2 | 778.716 ± 0.2 | 774.698 ± 0.2 | 770.631 ± 0.2 | 766.522 ± 0.2
x1 = 1 | 813.373 ± 0.18 | 809.573 ± 0.18 | 805.762 ± 0.18 | 801.923 ± 0.18 | 798.053 ± 0.19 | 794.147 ± 0.19 | 790.231 ± 0.19 | 786.238 ± 0.19
